Substitutions are numbered along the chain they refer to.
Tests used:
[1] = target: T1, full-length human JP2 (junctophilin-2) (Homo sapiens, UniProt Q9BR39); assay: protein-lipid overlay; settings: weak binding
T1 construct: gene JPH2; full-length, N-terminal MBP tag removed with PreScission protease; E. coli BL21; ~75 kDa on SDS/PAGE; stated as monomeric
T1 sequence (Q9BR39 1-696): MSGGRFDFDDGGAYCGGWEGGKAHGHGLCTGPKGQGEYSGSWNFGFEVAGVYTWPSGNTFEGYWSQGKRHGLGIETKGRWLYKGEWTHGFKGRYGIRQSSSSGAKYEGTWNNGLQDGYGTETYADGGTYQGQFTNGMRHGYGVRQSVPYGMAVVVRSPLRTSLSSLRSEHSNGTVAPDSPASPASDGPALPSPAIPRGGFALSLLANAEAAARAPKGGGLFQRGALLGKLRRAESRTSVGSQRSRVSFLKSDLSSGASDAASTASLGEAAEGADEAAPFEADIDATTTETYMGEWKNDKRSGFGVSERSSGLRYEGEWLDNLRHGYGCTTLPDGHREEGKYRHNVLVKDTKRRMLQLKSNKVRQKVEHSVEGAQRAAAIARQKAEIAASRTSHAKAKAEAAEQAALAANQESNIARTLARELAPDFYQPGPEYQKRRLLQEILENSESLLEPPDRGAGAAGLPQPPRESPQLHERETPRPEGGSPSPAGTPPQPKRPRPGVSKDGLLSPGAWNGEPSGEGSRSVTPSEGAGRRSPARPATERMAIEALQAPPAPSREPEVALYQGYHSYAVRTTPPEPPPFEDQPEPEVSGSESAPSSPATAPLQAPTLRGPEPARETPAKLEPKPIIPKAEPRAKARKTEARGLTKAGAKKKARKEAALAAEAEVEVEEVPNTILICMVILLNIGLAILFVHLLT

[2] = target: T1, full-length human JP2 (junctophilin-2); assay: QCM-D, supported lipid bilayer, one-site isotherm; format: binding; settings: read-out: DOPC/DOPE/POPC/DOPS (55:15:10:20, by vol.) JP2
From the text: (§1) QCM-D, supported lipid bilayer, one-site isotherm on full-length human JP2 (junctophilin-2)

[3] = target: T2, full-length human JP2 (junctophilin-2) (Homo sapiens, UniProt Q9BR39, S101R); assay: QCM-D, supported lipid bilayer, one-site isotherm; format: binding; settings: read-out: DOPC/DOPE/POPC/DOPS (55:15:10:20, by vol.) / S101R
T2 construct: gene JPH2; full-length, N-terminal MBP tag removed with PreScission protease; E. coli BL21; ~75 kDa on SDS/PAGE; stated as monomeric
T2 sequence (Q9BR39 1-696 S101R): T1 sequence (Q9BR39 1-696) with S101R
From the text: as §1

[4] = target: T3, JP2^1–452 (N-terminal domain) (Homo sapiens, UniProt Q9BR39); assay: QCM-D, supported lipid bilayer, one-site isotherm; format: binding; settings: read-out: DOPC/DOPE/POPC/DOPS (55:15:10:20, by vol.) / JP2^1-452
T3 construct: gene JPH2; N-terminal segment, residues 1-452, N-terminal MBP tag removed with PreScission protease; E. coli BL21; ~50 kDa on SDS/PAGE
T3 sequence (Q9BR39 1-452): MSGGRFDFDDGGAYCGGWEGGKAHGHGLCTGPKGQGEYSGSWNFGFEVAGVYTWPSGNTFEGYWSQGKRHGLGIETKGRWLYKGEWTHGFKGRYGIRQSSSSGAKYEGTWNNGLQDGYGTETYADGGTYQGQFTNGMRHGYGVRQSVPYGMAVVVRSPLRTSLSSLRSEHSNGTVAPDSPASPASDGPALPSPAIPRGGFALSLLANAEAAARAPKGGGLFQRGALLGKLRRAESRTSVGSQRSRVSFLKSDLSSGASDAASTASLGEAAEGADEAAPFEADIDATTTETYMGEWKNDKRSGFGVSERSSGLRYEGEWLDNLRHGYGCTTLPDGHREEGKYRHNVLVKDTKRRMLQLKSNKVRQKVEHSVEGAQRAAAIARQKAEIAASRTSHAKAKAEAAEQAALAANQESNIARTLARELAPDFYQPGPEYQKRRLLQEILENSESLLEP
From the text: QCM-D, supported lipid bilayer, one-site isotherm on JP2^1–452 (N-terminal domain)

Row | SMILES | protein-lipid overlay [1] | Kd [2] | Kd [3] | Kd [4]
1 | CCCCCCCC/C=C\CCCCCCCC(=O)OC[C@H](COP(=O)(O)OCC(O)CO)OC(=O)CCCCCCC/C=C\CCCCCCCC (stereo partly shown) [DOPG, 1,2-dioleoyl-sn-glycero-3-phosphoglycerol] | there is only weak binding of JP2 to DOPG |  |  | 
2 | CCCCCCCC/C=C\CCCCCCCC(=O)OC[C@H](COP(=O)(O)OC[C@H](N)C(=O)O)OC(=O)CCCCCCC/C=C\CCCCCCCC [DOPS, 1,2-dioleoyl-sn-glycero-3-phospho-L-serine] |  | 483 ± 54 nM | 371 ± 31 nM | 992 ± 80 nM
